Test results as given in US12303592B2, “Formulations for parenteral delivery of compounds and uses thereof” (Wyeth, LLC, priority 2006, dated 2025).

Assay: Stopper compatibility evaluation (Table 14), HPLC Method A; as to RRT 0.38: key: BRL=below recordable limit; as to RRT 0.49: key: BRL=below recordable limit; as to RRT 0.67: key: BRL=below recordable limit; as to RRT 0.79: key: BRL=below recordable limit; as to RRT 0.89: key: BRL=below recordable limit; as to RRT 1.17: key: BRL=below recordable limit; as to RRT 1.55: key: BRL=below recordable limit; as to RRT 1.89: key: BRL=below recordable limit; as to RRT 1.96: key: BRL=below recordable limit; as to RRT 2.01: key: BRL=below recordable limit; as to RRT 2.26: key: BRL=below recordable limit
Type: physicochemical
Set-up: RRT 1.77 / Total / RRT 1.66: unit not given here
Source text: Identical preparations prepared as described in Example 4 were stored in parallel in vials having either a 13 mm WPS S2-F451 4432/50 Gray B2-40 Westar RS stopper (West Pharmaceutical Services) or a 13 mm S2-F451 RS D 777-1 RB2 40 stopper (Daikyo Seiko, Ltd) under various conditions. Each of the stoppers has a FluoroTec® fluorocarbon film; the Westar 4432/50 stopper is chlorobutyl rubber, while the RB2-40 RS D 777-1 stopper is bromobutyl rubber. The presence of accumulation of degradant was assessed for each of the configurations (HPLC Method A).

[1] = Control at Room Temperature, 1 hours
[2] = Control at Room Temperature, 4 hours
[3] = RS-D 777-1 B2 40 from Daikyo Seiko Ltd. at 40° C., 1 hours
[4] = RS-D 777-1 B2 40 from Daikyo Seiko Ltd. at 40° C., 4 hours
[5] = RS-D 777-1 B2 40 from Daikyo Seiko Ltd. at Room Temperature, 1 hours
[6] = RS-D 777-1 B2 40 from Daikyo Seiko Ltd. at Room Temperature, 4 hours
[7] = Westar RS stopper (West Pharmaceutical Services) at 40° C., 1 hours
[8] = Westar RS stopper (West Pharmaceutical Services) at 40° C., 4 hours
[9] = Westar RS stopper (West Pharmaceutical Services) at Room Temperature, 1 hours
[10] = Westar RS stopper (West Pharmaceutical Services) at Room Temperature, 4 hours

Compound: C[N+]1(CC2CC2)CC[C@]23c4c5ccc(O)c4O[C@H]2C(=O)CC[C@@]3(O)[C@H]1C5 (some centres unmarked) [MNTX, methylnaltrexone bromide]
- Initial (Control at 40° C., 1 hours): 20.3 mg
- RRT 0.38 (Control at 40° C., 1 hours): BRL
- RRT 0.49 (Control at 40° C., 1 hours): BRL
- RRT 0.67 (Control at 40° C., 1 hours): BRL
- RRT 0.79 (Control at 40° C., 1 hours): BRL
- RRT 0.89 (Control at 40° C., 1 hours): BRL
- RRT 1.17 (Control at 40° C., 1 hours): BRL
- RRT 1.55 (Control at 40° C., 1 hours): BRL
- RRT 1.66 (Control at 40° C., 1 hours): 0.12
- RRT 1.77 (Control at 40° C., 1 hours): BRL
- RRT 1.89 (Control at 40° C., 1 hours): BRL
- RRT 1.96 (Control at 40° C., 1 hours): BRL
- RRT 2.01 (Control at 40° C., 1 hours): BRL
- RRT 2.26 (Control at 40° C., 1 hours): BRL
- Total (Control at 40° C., 1 hours): 0.12
- Initial (Control at 40° C., 4 hours): 20.3 mg
- RRT 0.38 (Control at 40° C., 4 hours): BRL
- RRT 0.49 (Control at 40° C., 4 hours): BRL
- RRT 0.67 (Control at 40° C., 4 hours): BRL
- RRT 0.79 (Control at 40° C., 4 hours): BRL
- RRT 0.89 (Control at 40° C., 4 hours): BRL
- RRT 1.17 (Control at 40° C., 4 hours): BRL
- RRT 1.55 (Control at 40° C., 4 hours): BRL
- RRT 1.66 (Control at 40° C., 4 hours): 0.12
- RRT 1.77 (Control at 40° C., 4 hours): BRL
- RRT 1.89 (Control at 40° C., 4 hours): BRL
- RRT 1.96 (Control at 40° C., 4 hours): BRL
- RRT 2.01 (Control at 40° C., 4 hours): BRL
- RRT 2.26 (Control at 40° C., 4 hours): BRL
- Total (Control at 40° C., 4 hours): 0.12
- Initial [1]: 20.1 mg
- RRT 0.38 [1]: BRL
- RRT 0.49 [1]: BRL
- RRT 0.67 [1]: BRL
- RRT 0.79 [1]: BRL
- RRT 0.89 [1]: BRL
- RRT 1.17 [1]: BRL
- RRT 1.55 [1]: BRL
- RRT 1.66 [1]: 0.12
- RRT 1.77 [1]: BRL
- RRT 1.89 [1]: BRL
- RRT 1.96 [1]: BRL
- RRT 2.01 [1]: BRL
- RRT 2.26 [1]: BRL
- Total [1]: 0.12
- Initial [2]: 20.0 mg
- RRT 0.38 [2]: BRL
- RRT 0.49 [2]: BRL
- RRT 0.67 [2]: BRL
- RRT 0.79 [2]: BRL
- RRT 0.89 [2]: BRL
- RRT 1.17 [2]: BRL
- RRT 1.55 [2]: BRL
- RRT 1.66 [2]: 0.12
- RRT 1.77 [2]: BRL
- RRT 1.89 [2]: BRL
- RRT 1.96 [2]: BRL
- RRT 2.01 [2]: BRL
- RRT 2.26 [2]: BRL
- Total [2]: 0.12
- Initial (Initial): 20.2 mg
- RRT 0.38 (Initial): BRL
- RRT 0.49 (Initial): BRL
- RRT 0.67 (Initial): BRL
- RRT 0.79 (Initial): BRL
- RRT 0.89 (Initial): BRL
- RRT 1.17 (Initial): BRL
- RRT 1.55 (Initial): BRL
- RRT 1.66 (Initial): 0.12
- RRT 1.77 (Initial): BRL
- RRT 1.89 (Initial): BRL
- RRT 1.96 (Initial): BRL
- RRT 2.01 (Initial): BRL
- RRT 2.26 (Initial): BRL
- Total (Initial): 0.12
- Initial [3]: 20.1 mg
- RRT 0.38 [3]: BRL
- RRT 0.49 [3]: BRL
- RRT 0.67 [3]: BRL
- RRT 0.79 [3]: BRL
- RRT 0.89 [3]: BRL
- RRT 1.17 [3]: BRL
- RRT 1.55 [3]: BRL
- RRT 1.66 [3]: 0.12
- RRT 1.77 [3]: 0.05
- RRT 1.89 [3]: BRL
- RRT 1.96 [3]: BRL
- RRT 2.01 [3]: BRL
- RRT 2.26 [3]: BRL
- Total [3]: 0.17
- RRT 0.38 [4]: BRL
- RRT 0.49 [4]: BRL
- RRT 0.67 [4]: BRL
- RRT 0.79 [4]: BRL
- RRT 0.89 [4]: BRL
- RRT 1.17 [4]: BRL
- RRT 1.55 [4]: BRL
- RRT 1.66 [4]: 0.12
- RRT 1.77 [4]: 0.05
- RRT 1.89 [4]: BRL
- RRT 1.96 [4]: BRL
- RRT 2.01 [4]: BRL
- RRT 2.26 [4]: BRL
- Total [4]: 0.17
- Initial [5]: 20.3 mg
- RRT 0.38 [5]: BRL
- RRT 0.49 [5]: BRL
- RRT 0.67 [5]: BRL
- RRT 0.79 [5]: BRL
- RRT 0.89 [5]: BRL
- RRT 1.17 [5]: BRL
- RRT 1.55 [5]: BRL
- RRT 1.66 [5]: 0.12
- RRT 1.77 [5]: BRL
- RRT 1.89 [5]: BRL
- RRT 1.96 [5]: BRL
- RRT 2.01 [5]: BRL
- RRT 2.26 [5]: BRL
- Total [5]: 0.12
- Initial [6]: 20.2 mg
- RRT 0.38 [6]: BRL
- RRT 0.49 [6]: BRL
- RRT 0.67 [6]: BRL
- RRT 0.79 [6]: BRL
- RRT 0.89 [6]: BRL
- RRT 1.17 [6]: BRL
- RRT 1.55 [6]: BRL
- RRT 1.66 [6]: 0.12
- RRT 1.77 [6]: BRL
- RRT 1.89 [6]: BRL
- RRT 1.96 [6]: BRL
- RRT 2.01 [6]: BRL
- RRT 2.26 [6]: BRL
- Total [6]: 0.12
- Initial [7]: 20.1 mg
- RRT 0.38 [7]: BRL
- RRT 0.49 [7]: BRL
- RRT 0.67 [7]: BRL
- RRT 0.79 [7]: BRL
- RRT 0.89 [7]: BRL
- RRT 1.17 [7]: BRL
- RRT 1.55 [7]: BRL
- RRT 1.66 [7]: 0.06
- RRT 1.77 [7]: BRL
- RRT 1.89 [7]: BRL
- RRT 1.96 [7]: BRL
- RRT 2.01 [7]: BRL
- RRT 2.26 [7]: BRL
- Total [7]: 0.06
- Initial [8]: 20.2 mg
- RRT 0.38 [8]: BRL
- RRT 0.49 [8]: BRL
- RRT 0.67 [8]: BRL
- RRT 0.79 [8]: BRL
- RRT 0.89 [8]: BRL
- RRT 1.17 [8]: BRL
- RRT 1.55 [8]: BRL
- RRT 1.66 [8]: 0.06
- RRT 1.77 [8]: 0.05
- RRT 1.89 [8]: BRL
- RRT 1.96 [8]: BRL
- RRT 2.01 [8]: BRL
- RRT 2.26 [8]: BRL
- Total [8]: 0.06
- Initial [9]: 20.3 mg
- RRT 0.38 [9]: BRL
- RRT 0.49 [9]: BRL
- RRT 0.67 [9]: BRL
- RRT 0.79 [9]: BRL
- RRT 0.89 [9]: BRL
- RRT 1.17 [9]: BRL
- RRT 1.55 [9]: BRL
- RRT 1.66 [9]: 0.06
- RRT 1.77 [9]: BRL
- RRT 1.89 [9]: BRL
- RRT 1.96 [9]: BRL
- RRT 2.01 [9]: BRL
- RRT 2.26 [9]: BRL
- Total [9]: 0.06
- Initial [10]: 20.1 mg
- RRT 0.38 [10]: BRL
- RRT 0.49 [10]: BRL
- RRT 0.67 [10]: BRL
- RRT 0.79 [10]: BRL
- RRT 0.89 [10]: BRL
- RRT 1.17 [10]: BRL
- RRT 1.55 [10]: BRL
- RRT 1.66 [10]: 0.06
- RRT 1.77 [10]: BRL
- RRT 1.89 [10]: BRL
- RRT 1.96 [10]: BRL
- RRT 2.01 [10]: BRL
- RRT 2.26 [10]: BRL
- Total [10]: 0.06
